Measured values reported in ChEMBL document CHEMBL2202979, “Development of macrocyclic inhibitors of HCV NS3/4A protease with cyclic constrained P2-P4 linkers” (Bioorg Med Chem Lett, 2012).

Assays:
[1] = molecular target: Genome polyprotein (Hepacivirus C, UniProt K7XJL6, A156V); test: Inhibition of HCV genotype 1b BK NS3/4A protease A156V mutant expressed in Escherichia coli incubated for 30 mins by time-resolved fluorescence assay; set-up: species or system Hepatitis C virus (isolate BK)
[2] = tested on: Hepatitis C virus; test: Antiviral activity against HCV genotype 1b Con1 infected in human Huh7 cells assessed as inhibition of viral replication in presence of 50% NHS by HCV bicistronic replicon assay; type: functional, organism-based, Hepacivirus hominis; conditions: Con1, Huh-7
[3] = molecular target: Genome polyprotein (Hepacivirus C, UniProt K7XJL6, A156T); test: Inhibition of HCV genotype 1b BK NS3/4A protease A156T mutant expressed in Escherichia coli incubated for 30 mins by time-resolved fluorescence assay; set-up: species or system Hepatitis C virus (isolate BK)
[4] = Inhibition of HCV genotype 1b BK NS3/4A protease expressed in Escherichia coli incubated for 30 mins by time-resolved fluorescence assay; set-up: species or system Hepatitis C virus (isolate BK)
[5] = Inhibition of HCV subtype 3a NS3/4A protease incubated for 30 mins by time-resolved fluorescence assay; set-up: species or system Hepatitis C virus subtype 3a
[6] = molecular target: Hepatitis C virus serine protease, NS3/NS4A (Hepatitis C virus, UniProt A3EZI9+D2K2A8, R155K); test: Inhibition of HCV genotype 1b BK NS3/4A protease R155K mutant expressed in Escherichia coli incubated for 30 mins by time-resolved fluorescence assay; set-up: species or system Hepatitis C virus (isolate BK)
[7] = molecular target: Genome polyprotein (Hepacivirus C, UniProt K7XJL6, D168V); test: Inhibition of HCV genotype 1b BK NS3/4A protease D168V mutant expressed in Escherichia coli incubated for 30 mins by time-resolved fluorescence assay; set-up: species or system Hepatitis C virus (isolate BK)
[8] = Inhibition of HCV genotype 2a JFH NS3/4A protease expressed in Escherichia coli incubated for 30 mins by time-resolved fluorescence assay; set-up: species or system Hepatitis C virus JFH-1
[9] = Drug level in Sprague-Dawley rat liver at 5 mg/kg, po measured 4 hrs post dose by LC/MS method; type: ADME, organism-based; set-up: dose 5 mg/kg, route oral; conditions: read-out: Drug uptake
[10] = tested on: Hepatitis C virus; test: Antiviral activity against HCV genotype 1b Con1 infected in human Huh7 cells assessed as inhibition of viral replication in presence of 10% FBS by HCV bicistronic replicon assay; type: functional, organism-based, Hepacivirus hominis; conditions: Con1, Huh-7

| SMILES | Ki [1] [nM] | IC50 [2] [nM] | Ki [3] [nM] | Ki [4] [nM] | Ki [5] [nM] | Ki [6] [nM] | Ki [7] [nM] | Ki [8] [nM] | concentration at 4 h [9] [µM] | IC50 [10] [nM] |
| --- | --- | --- | --- | --- | --- | --- | --- | --- | --- | --- |
| C=C[C@@H]1C[C@]1(NC(=O)[C@@H]1C[C@@H]2CN1C(=O)[C@H](C1CCCC1)NC(=O)O[C@@H]1COC[C@H]1CCC/C=C/c1cc3ccc(OC)cc3nc1O2)C(=O)NS(=O)(=O)C1CC1 | 64 | 5 | 7.8 | < 0.05 | 5.7 | 0.1 | – | – | – | – |
| C=C[C@@H]1C[C@]1(NC(=O)[C@@H]1C[C@@H]2CN1C(=O)[C@H](C1CCCC1)NC(=O)OCC(C)(C)CCCc1cc3c(cc(OCC)nc3cc1OC)O2)C(=O)NS(=O)(=O)C1CC1 | – | – | – | 0.016 | 2.1 | 1.2 | 2.2 | 0.14 | – | – |
| C=C[C@@H]1C[C@]1(NC(=O)[C@@H]1C[C@@H]2CN1C(=O)[C@H](C1CCCC1)NC(=O)O[C@@H]1CCC[C@H]1C/C=C/c1cc3c(cc(OCC)nc3cc1OC)O2)C(=O)NS(=O)(=O)C1CC1 | 15 | 17 | 0.8 | < 0.05 | 4.6 | 0.5 | – | – | 10.2 | – |
| C=C[C@@H]1C[C@]1(NC(=O)[C@@H]1C[C@@H]2CN1C(=O)[C@H](C1CCCCC1)NC(=O)O[C@@H]1CCC[C@H]1C/C=C/c1cc3c(cc(OCC)nc3cc1OC)O2)C(=O)NS(=O)(=O)C1CC1 | 40 | 55 | 2 | < 0.05 | 3.1 | 1.3 | – | – | 37.1 | – |
| C=C[C@@H]1C[C@]1(NC(=O)[C@@H]1C[C@@H]2CN1C(=O)[C@H](C1CCCCC1)NC(=O)O[C@@H]1CCCC[C@H]1C/C=C/c1cc3c(cc(OCC)nc3cc1OC)O2)C(=O)NS(=O)(=O)C1CC1 | 567 | 25 | 42 | < 0.05 | 12.6 | 1.5 | – | – | – | – |
| C=C[C@@H]1C[C@]1(NC(=O)[C@@H]1C[C@@H]2CN1C(=O)[C@H](C1CCCC1)NC(=O)O[C@@H]1CCC[C@@]1(C)C/C=C/c1cc3c(cc(OCC)nc3cc1OC)O2)C(=O)NS(=O)(=O)C1CC1 | – | 38 | 49 | < 0.05 | 4.1 | 0.9 | – | – | – | – |
| C=C[C@@H]1C[C@]1(NC(=O)[C@@H]1C[C@@H]2CN1C(=O)[C@H](C1CCCCC1)NC(=O)O[C@@H]1COC[C@H]1C/C=C/c1cc3c(cc(OCC)nc3cc1OC)O2)C(=O)NS(=O)(=O)C1CC1 | 23 | 18 | 0.7 | < 0.05 | 1.9 | 0.5 | – | – | 0.3 | – |
| C=C[C@@H]1C[C@]1(NC(=O)[C@@H]1C[C@@H]2CN1C(=O)[C@H](C1CCCC1)NC(=O)O[C@H]1C[C@H](C/C=C/c3cc4c(cc(OCC)nc4cc3OC)O2)C1)C(=O)NS(=O)(=O)C1CC1 | 16 | 16 | 4.8 | < 0.05 | 7.7 | 2.4 | – | – | – | – |
| C=C[C@@H]1C[C@]1(NC(=O)[C@@H]1C[C@@H]2CN1C(=O)[C@H](C1CCCC1)NC(=O)OCC(C)(C)C[C@@H]1C[C@@H]1c1cc3c(cc(OCC)nc3cc1OC)O2)C(=O)NS(=O)(=O)C1CC1 | 14 | 11 | 2.8 | 0.016 | 1 | 0.2 | 1.8 | 0.14 | 27 | 2.3 |
| C=C[C@@H]1C[C@]1(NC(=O)[C@@H]1C[C@@H]2CN1C(=O)[C@H](C1CCCC1)NC(=O)N(C)[C@@H]1CCC[C@H]1C/C=C/c1cc3c(cc(OCC)nc3cc1OC)O2)C(=O)NS(=O)(=O)C1CC1 | 18 | 25 | 1.7 | < 0.05 | 1.5 | 0.6 | – | – | 15.9 | – |
| C=C[C@@H]1C[C@]1(NC(=O)[C@@H]1C[C@@H]2CN1C(=O)[C@H](C1CCCCC1)NC(=O)N1CC[C@@H](C1)OC/C=C/c1cc3c(cc(OCC)nc3cc1OC)O2)C(=O)NS(=O)(=O)C1CC1 | 6.8 | 43 | 0.4 | < 0.05 | 1.4 | 0.2 | – | – | 4.8 | – |
| C=C[C@@H]1C[C@]1(NC(=O)[C@@H]1C[C@@H]2CN1C(=O)[C@H](C1CCCCC1)NC(=O)N1CC[C@H](C1)OC/C=C/c1cc3c(cc(OCC)nc3cc1OC)O2)C(=O)NS(=O)(=O)C1CC1 | 134 | 29 | 2.4 | < 0.05 | 3.6 | 0.3 | – | – | – | – |
| C=C[C@@H]1C[C@]1(NC(=O)[C@@H]1C[C@@H]2CN1C(=O)[C@H](C1CCCCC1)NC(=O)N1CCC[C@@H](C1)OCCCc1cc3c(cc(OCC)nc3cc1OC)O2)C(=O)NS(=O)(=O)C1CC1 | 46 | 23 | 1.9 | < 0.05 | 2.3 | 1.2 | – | – | 4.4 | – |
| C=C[C@@H]1C[C@]1(NC(=O)[C@@H]1C[C@@H]2CN1C(=O)[C@H](C1CCCCC1)NC(=O)N1CCO[C@H](CCCCc3cc4c(cc(OCC)nc4cc3OC)O2)C1)C(=O)NS(=O)(=O)C1CC1 | – | 9 | 6.9 | < 0.05 | 5.2 | 1 | – | – | – | – |
| C=C[C@@H]1C[C@]1(NC(=O)[C@@H]1C[C@@H]2CN1C(=O)[C@H](C1CCCCC1)NC(=O)N1CCC(CC1)OCCC/C=C/c1cc3c(cc(OCC)nc3cc1OC)O2)C(=O)NS(=O)(=O)C1CC1 | 18 | 32 | 0.7 | < 0.05 | 2.1 | 0.2 | – | – | 11 | – |
| C=C[C@@H]1C[C@]1(NC(=O)[C@@H]1C[C@@H]2CN1C(=O)[C@H](C1CCCCC1)NC(=O)N1CC(C1)OCCC/C=C/c1cc3c(cc(OCC)nc3cc1OC)O2)C(=O)NS(=O)(=O)C1CC1 | 6.1 | 64 | 0.2 | < 0.05 | 0.9 | 0.2 | – | – | 4 | – |
| C=C[C@@H]1C[C@]1(NC(=O)[C@@H]1C[C@@H]2CN1C(=O)[C@H](C1CCCC1)NC(=O)N1CC(OCC)(CCCCc3cc4c(cc(OCC)nc4cc3OC)O2)C1)C(=O)NS(=O)(=O)C1CC1 | – | 18 | 7.1 | < 0.05 | 1 | 0.9 | – | – | – | – |
| C=C[C@@H]1C[C@]1(NC(=O)[C@@H]1C[C@@H]2CN1C(=O)[C@H](C1CCCC1)NC(=O)O[C@@H]1CCC[C@H]1CCC/C=C/c1cc3ccc(OC)cc3nc1O2)C(=O)NS(=O)(=O)C1CC1 | – | 58 | 17 | < 0.05 | 11.6 | 0.2 | – | – | 30.8 | – |
| C=C[C@@H]1C[C@]1(NC(=O)[C@@H]1C[C@@H]2CN1C(=O)[C@H](C1CCCC1)NC(=O)N1CC[C@@H](C1)OCCC/C=C/c1cc3ccc(OC)cc3nc1O2)C(=O)NS(=O)(=O)C1CC1 | 37 | 32 | 2.9 | 0.016 | 3 | 0.1 | 1.2 | 0.17 | 8.6 | 3.1 |
| C=C[C@@H]1C[C@]1(NC(=O)[C@@H]1C[C@@H]2CN1C(=O)[C@H](C1CCCC1)NC(=O)N1CC[C@@H](C1)OCCCCCc1cc3ccc(OC)cc3nc1O2)C(=O)NS(=O)(=O)C1CC1 | 22 | 31 | 1.5 | < 0.05 | 5.9 | 0.1 | – | – | 12 | – |
| C=C[C@@H]1C[C@]1(NC(=O)[C@@H]1C[C@@H]2CN1C(=O)[C@H](C1CCCCC1)NC(=O)N1CCC(CC1)OCCC/C=C/c1cc3ccc(OC)cc3nc1O2)C(=O)NS(=O)(=O)C1CC1 | – | – | 11 | < 0.05 | 27 | 0.3 | – | – | – | – |
| C=C[C@@H]1C[C@]1(NC(=O)[C@@H]1C[C@@H]2CN1C(=O)[C@H](C1CCCC1)NC(=O)N1CC(C1)OCCC/C=C/c1cc3ccc(OC)cc3nc1O2)C(=O)NS(=O)(=O)C1CC1 | – | – | 28 | < 0.05 | 38 | 0.5 | – | – | – | – |
| C=C[C@@H]1C[C@]1(NC(=O)[C@@H]1C[C@@H]2CN1C(=O)[C@H](C1CCCC1)NC(=O)O[C@@H]1CCC(CCCc3cc4c(cc(OCC)nc4cc3OC)O2)C1)C(=O)NS(=O)(=O)C1CC1 (mixture of isomers) | 46 | 24 | 4.6 | < 0.05 | 5 | 2 | – | – | – | – |
| C=C[C@@H]1C[C@]1(NC(=O)[C@@H]1C[C@@H]2CN1C(=O)[C@H](C1CCCC1)NC(=O)OC1CCC1C/C=C/c1cc3c(cc(OCC)nc3cc1OC)O2)C(=O)NS(=O)(=O)C1CC1 (mixture of isomers) | – | – | 52 | < 0.05 | 18 | 2.2 | – | – | – | – |
